Calls of active or inactive are those of the source.
How the values were obtained:
[1] = biological target: Neurotensin receptor type 1 (Homo sapiens, UniProt P30989); format: functional;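 note: Image-based confirmatory dose-response assay measuring agonist activity at NTR1; NTR1-expressing U2OS osteosarcoma cells imaged for beta-arrestin GFP spot formation; agonist potency where compounds increase beta-arrestin recruitment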
Nonstructural protein 1 = Nonstructural protein 1 (Influenza A virus, UniProt Q194T2); format: functional, Influenza A virus (A/California/07/2009(H1N1))
[2] = biological target: T1, Mannose-6-phosphate isomerase (Homo sapiens, UniProt P34949); assay: human PMI inhibitors, high substrate, primary screen, biochemical, fluorescence intensity, high mannose 6-phosphate (AID 1220)
T1 sequence (P34949 whole entry): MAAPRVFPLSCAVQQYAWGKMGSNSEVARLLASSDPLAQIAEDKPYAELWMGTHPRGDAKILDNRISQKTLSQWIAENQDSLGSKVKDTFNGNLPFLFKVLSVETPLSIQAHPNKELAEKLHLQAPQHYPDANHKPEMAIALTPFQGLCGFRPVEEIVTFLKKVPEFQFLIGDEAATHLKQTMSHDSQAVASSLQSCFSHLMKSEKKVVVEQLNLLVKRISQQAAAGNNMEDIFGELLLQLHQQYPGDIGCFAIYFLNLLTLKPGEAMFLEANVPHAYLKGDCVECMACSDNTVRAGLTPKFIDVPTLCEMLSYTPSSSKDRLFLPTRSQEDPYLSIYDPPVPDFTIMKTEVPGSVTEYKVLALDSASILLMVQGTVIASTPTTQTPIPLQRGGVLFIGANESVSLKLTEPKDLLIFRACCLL

[3] = biological target: T2, Heat shock factor protein 1 (Mus musculus, UniProt P38532); assay: HSF1 potentiators in luciferase reporter cells, confirmation, cell-based, NIH3T3, luminescence, dose retest (AID 435004); format: functional;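 note: stress induced by proteasome inhibitor MG132 added 30 min after compound; luciferase reporter driven by HSF1 response element in NIH3T3 cells; actives raise luminescence as potentiators of the MG132 stress response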
T2 sequence (P38532 whole entry): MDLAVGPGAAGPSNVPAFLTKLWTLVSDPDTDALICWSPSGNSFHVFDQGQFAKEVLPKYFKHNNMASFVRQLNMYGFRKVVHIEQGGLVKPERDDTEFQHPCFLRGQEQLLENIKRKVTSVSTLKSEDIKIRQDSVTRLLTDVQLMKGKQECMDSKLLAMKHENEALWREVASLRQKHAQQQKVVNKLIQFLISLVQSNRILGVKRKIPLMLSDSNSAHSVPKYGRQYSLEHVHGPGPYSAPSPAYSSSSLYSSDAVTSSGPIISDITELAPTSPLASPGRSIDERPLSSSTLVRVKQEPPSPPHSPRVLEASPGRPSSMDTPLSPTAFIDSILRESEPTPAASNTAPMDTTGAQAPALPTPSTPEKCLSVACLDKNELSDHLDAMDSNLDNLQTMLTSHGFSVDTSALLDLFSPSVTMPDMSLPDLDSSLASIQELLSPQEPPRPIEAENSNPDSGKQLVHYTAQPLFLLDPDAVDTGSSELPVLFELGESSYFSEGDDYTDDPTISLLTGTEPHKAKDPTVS

MDCK = assay: antiviral activity against H1N1 influenza, dose response, cell-based, strain KY136 (AID 540257); format: functional; settings: Canis lupus familiaris
[4] = growth suppression of PTEN-null colon cells, dose response, cell-based, HCT116 PTEN knockout (AID 1047); format: functional;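 note: HCT116 colon tumor cells with PTEN knocked out; cells exposed to compound for 60 hours before readout; potency for loss of cell viability measured by luminescence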
[5] = HeLa cell cytotoxicity, dose response, cytotoxicity control for MgcRacGAP inhibitor project (AID 624300); format: functional
[6] = biological target: T3, Rac GTPase-activating protein 1 (Homo sapiens, UniProt Q9H0H5); assay: MgcRacGAP GTPase-activating activity inhibitors, confirmation, biochemical, ADP Hunter fluorescence, primary and confirmatory (AID 624330); format: functional
T3 sequence (Q9H0H5 whole entry): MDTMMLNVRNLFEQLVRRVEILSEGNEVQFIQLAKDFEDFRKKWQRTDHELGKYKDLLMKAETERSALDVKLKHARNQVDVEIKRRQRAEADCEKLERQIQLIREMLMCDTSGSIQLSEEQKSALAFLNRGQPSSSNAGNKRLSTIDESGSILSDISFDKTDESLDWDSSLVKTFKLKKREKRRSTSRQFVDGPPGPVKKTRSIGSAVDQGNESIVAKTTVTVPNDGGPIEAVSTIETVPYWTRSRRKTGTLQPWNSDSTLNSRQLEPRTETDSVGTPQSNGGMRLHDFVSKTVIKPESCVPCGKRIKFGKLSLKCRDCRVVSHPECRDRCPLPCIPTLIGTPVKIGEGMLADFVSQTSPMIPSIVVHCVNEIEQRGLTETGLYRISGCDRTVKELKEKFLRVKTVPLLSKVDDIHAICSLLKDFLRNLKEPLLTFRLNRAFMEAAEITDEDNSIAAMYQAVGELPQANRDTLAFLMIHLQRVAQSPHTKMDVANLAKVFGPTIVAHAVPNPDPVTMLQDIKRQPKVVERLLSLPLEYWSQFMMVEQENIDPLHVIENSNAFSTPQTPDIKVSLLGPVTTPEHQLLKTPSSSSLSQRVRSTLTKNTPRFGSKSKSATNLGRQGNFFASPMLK

[7] = growth suppression of beta-catenin-knockout colon cells, dose response, cell-based, HCT116, human colon tumor (AID 1045); format: functional;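 note: HCT116 colon tumor cells with beta catenin knocked out; cells exposed to compound for 60 hours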
[8] = biological target: Beta-adrenergic receptor kinase 1 (Homo sapiens, UniProt P25098); assay: GRK2 inhibitors displacing RNA aptamer, dose response, biochemical, flow cytometry beads, FAM-aptamer, powder set 1 (AID 588720)
[9] = C. albicans growth with fluconazole, confirmation, fluorescence, retest (AID 2467); format: functional, cell-based
Cytochrome P450 1A2 = biological target: T4, Cytochrome P450 1A2 (Homo sapiens, UniProt P05177);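 note: PubChem cytochrome P450 panel assay, CYP1A2 panel member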
T4 sequence (P05177 whole entry): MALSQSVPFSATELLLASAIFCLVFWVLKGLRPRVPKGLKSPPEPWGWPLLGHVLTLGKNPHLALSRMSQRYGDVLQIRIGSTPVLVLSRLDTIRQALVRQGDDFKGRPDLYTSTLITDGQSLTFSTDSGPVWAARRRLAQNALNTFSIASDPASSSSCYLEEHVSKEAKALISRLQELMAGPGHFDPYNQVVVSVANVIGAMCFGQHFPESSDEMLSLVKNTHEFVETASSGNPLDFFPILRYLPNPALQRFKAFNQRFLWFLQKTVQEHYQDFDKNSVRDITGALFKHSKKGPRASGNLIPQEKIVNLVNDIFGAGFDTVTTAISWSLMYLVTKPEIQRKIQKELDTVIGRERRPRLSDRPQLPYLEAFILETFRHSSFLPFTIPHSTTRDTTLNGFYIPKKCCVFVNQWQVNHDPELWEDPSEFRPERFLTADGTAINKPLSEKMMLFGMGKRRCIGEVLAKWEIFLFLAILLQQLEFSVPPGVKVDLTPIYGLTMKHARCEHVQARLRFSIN

[10] = NIH-3T3 fibroblast cytotoxicity, dose response, cytotoxicity control, cell-based, fluorescence, Alamar Blue, secondary assay (AID 2327); format: functional;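 note: NIH-3T3 mouse fibroblasts cultured with fluconazole at 8 µg/mL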
[11] = cytotoxicity in HMLE control line with eGFP shRNA, dose response, counter-screen for HMLE_sh_ECad selective toxicity project, cell-based, HMLE_sh_eGFP, luminescence (AID 463074); format: functional, Homo sapiens;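 note: HMLE human mammary epithelial cells expressing control shRNA against eGFP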
[12] = Luminescence Cell-Based Dose Retest to Confirm Inhibitors of Cancer Stem Cells. [Related pubchem assays (depositor defined):AID2717, AID2721]; format: functional; settings: Homo sapiens
Mu-type opioid receptor = Mu-type opioid receptor (Homo sapiens, UniProt P35372); assay: (§1) Counterscreen for agonists of heterodimerization of the mu 1 (OPRM1) and delta 1 (OPRD1) opioid receptors: Luminescence-based cell-based high throughput dose response assay to identify agonists of OPRM1 homodimerization.; format: functional
[13] = biological target: 5-hydroxytryptamine receptor 5A (Homo sapiens, UniProt P47898); assay: Counterscreen for agonists of OPRM1-OPRD1 heterodimerization: luminescence-based cell-based high throughput dose response assay to identify agonists of 5-hydroxytryptamine (serotonin) 5A receptor (HTR5A). [Related pubchem assays (depositor defined):AID504326, AID504355, AID504692, AID504904, AID504905]; format: functional
[14] = biological target: T5, Short transient receptor potential channel 4 (Mus musculus, UniProt Q9QUQ5); assay: mouse TRPC4 channel activators, dose response, cell-based, HEK293 TRPC4/mu-opioid, Fluo-4 calcium (AID 434937); format: functional
T5 sequence (Q9QUQ5 whole entry): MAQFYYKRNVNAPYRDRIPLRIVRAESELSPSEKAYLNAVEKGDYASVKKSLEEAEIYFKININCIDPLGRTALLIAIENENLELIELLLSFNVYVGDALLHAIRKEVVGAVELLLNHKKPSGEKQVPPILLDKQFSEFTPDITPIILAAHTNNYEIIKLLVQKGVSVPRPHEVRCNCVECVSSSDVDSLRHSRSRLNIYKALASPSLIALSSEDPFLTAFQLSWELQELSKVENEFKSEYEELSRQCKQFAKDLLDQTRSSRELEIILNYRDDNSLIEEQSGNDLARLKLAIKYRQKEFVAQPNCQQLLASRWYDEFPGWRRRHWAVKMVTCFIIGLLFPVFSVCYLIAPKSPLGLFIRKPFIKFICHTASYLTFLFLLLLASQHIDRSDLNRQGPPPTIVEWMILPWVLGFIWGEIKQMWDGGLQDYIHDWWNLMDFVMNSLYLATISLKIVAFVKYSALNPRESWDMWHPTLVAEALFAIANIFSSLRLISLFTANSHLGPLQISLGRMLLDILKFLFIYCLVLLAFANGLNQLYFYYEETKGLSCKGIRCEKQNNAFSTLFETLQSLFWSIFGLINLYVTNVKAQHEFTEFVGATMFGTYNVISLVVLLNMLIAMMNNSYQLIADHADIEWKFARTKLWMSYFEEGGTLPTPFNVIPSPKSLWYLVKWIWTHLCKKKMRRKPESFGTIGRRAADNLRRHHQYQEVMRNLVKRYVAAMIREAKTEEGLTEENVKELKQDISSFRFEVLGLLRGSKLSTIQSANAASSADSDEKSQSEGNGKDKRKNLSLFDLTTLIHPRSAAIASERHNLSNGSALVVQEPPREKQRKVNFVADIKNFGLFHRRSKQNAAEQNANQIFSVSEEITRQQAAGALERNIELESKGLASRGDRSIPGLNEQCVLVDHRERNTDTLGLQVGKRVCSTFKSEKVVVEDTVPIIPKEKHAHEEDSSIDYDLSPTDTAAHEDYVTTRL

[15] = biological target: Opioid receptors; mu & delta (Homo sapiens, UniProt P41143+P35372); assay: agonists of MOR-DOR heterodimerization, dose response, cell-based, luminescence (AID 588407); format: functional
[16] = biological target: Delta-type opioid receptor (Homo sapiens, UniProt P41143); assay: as §1, with “of OPRD1” for “of OPRM1”, “homodimerization. [Related pubchem assays (depositor defined):AID504326, AID504355, AID504692, AID504904, AID504905]” for “homodimerization.”; format: functional
Chain of Delta-type opioid receptor (P41143 whole entry): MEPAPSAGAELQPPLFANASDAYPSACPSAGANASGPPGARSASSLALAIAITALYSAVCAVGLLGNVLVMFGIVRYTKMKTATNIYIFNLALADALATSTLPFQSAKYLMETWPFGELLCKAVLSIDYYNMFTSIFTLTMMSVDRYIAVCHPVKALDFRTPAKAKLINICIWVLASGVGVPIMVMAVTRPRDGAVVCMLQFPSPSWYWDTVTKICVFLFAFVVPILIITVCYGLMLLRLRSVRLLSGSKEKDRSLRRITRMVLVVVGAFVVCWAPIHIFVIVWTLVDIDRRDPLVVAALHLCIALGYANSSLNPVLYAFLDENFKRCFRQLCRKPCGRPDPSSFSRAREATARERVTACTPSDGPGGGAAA

Chain of Beta-adrenergic receptor kinase 1 (P25098 whole entry): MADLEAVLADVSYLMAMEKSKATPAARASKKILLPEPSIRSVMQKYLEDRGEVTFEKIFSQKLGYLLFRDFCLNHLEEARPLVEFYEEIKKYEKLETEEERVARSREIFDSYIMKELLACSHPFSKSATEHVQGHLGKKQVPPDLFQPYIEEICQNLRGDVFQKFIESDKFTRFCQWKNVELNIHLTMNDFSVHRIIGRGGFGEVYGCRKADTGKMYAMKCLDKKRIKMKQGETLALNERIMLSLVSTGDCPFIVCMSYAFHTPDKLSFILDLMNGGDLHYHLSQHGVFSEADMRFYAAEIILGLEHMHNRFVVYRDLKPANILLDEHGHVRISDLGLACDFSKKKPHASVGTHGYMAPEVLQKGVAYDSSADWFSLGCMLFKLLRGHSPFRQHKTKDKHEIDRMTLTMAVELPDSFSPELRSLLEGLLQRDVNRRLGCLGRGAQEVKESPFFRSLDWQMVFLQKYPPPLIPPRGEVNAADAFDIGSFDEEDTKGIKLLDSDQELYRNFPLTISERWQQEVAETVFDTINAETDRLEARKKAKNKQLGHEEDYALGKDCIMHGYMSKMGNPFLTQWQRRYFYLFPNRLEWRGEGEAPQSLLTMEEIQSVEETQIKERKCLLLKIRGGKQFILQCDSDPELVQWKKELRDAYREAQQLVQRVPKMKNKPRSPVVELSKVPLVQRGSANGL
Chain of 5-hydroxytryptamine receptor 5A (P47898 whole entry): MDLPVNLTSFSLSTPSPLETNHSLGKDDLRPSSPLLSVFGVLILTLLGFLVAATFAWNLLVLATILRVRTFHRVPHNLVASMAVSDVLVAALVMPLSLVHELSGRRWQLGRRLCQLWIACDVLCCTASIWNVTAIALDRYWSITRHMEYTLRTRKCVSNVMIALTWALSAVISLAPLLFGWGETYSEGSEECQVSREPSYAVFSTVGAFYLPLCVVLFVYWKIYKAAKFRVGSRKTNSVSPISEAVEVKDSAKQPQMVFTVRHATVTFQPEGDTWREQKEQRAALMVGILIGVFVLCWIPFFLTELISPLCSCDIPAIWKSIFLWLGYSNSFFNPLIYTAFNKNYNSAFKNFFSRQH
Chain of Neurotensin receptor type 1 (P30989 whole entry): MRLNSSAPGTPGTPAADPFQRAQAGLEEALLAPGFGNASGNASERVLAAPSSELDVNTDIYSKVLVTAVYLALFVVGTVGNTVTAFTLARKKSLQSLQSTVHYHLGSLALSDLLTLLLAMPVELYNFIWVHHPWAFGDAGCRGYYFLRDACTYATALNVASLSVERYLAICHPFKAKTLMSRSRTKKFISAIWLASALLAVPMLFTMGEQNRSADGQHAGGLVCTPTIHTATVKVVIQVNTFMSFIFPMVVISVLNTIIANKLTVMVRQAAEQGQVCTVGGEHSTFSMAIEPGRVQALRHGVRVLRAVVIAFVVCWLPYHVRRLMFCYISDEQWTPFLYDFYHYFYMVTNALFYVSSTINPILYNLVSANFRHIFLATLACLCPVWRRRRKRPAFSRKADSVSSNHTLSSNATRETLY
Chain of Nonstructural protein 1 (Q194T2 whole entry): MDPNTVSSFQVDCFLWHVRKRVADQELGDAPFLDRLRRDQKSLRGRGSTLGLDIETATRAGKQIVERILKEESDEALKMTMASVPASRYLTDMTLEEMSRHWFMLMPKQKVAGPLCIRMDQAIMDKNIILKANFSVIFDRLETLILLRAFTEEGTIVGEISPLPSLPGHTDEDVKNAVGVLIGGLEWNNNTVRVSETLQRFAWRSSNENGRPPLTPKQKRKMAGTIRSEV
Chain of Mu-type opioid receptor (P35372 whole entry): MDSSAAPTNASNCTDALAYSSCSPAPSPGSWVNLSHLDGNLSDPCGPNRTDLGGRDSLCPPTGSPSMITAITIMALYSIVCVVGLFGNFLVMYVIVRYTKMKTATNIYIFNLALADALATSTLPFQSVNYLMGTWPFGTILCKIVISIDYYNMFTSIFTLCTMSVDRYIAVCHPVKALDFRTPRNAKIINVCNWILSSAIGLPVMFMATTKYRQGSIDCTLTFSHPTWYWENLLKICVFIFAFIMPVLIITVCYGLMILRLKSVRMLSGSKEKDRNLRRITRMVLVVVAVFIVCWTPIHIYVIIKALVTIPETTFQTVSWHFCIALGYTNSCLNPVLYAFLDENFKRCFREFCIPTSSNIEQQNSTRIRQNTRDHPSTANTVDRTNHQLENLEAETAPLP

For `COC(=O)c1ccc2c(c1)C(C)(C)C(/C=C/c1ccc(O)cc1)=[N+]2C`, the EC50 [1] was 7.59 µM (active), the IC50 (Nonstructural protein 1) was 20.2 µM (active) and the IC50 [2] was > 50 µM (not active). For the same compound, the EC50 [3] was > 260 µM (inconclusive), the IC50 (MDCK) was 5.29 µM (active) and the EC50 [4] was 2.06 µM (active). The CC50 [5] was 35.1 µM (active), the IC50 [6] was 29.5 µM (active) and the EC50 [7] was 2.15 µM (active).

With `COc1ccc(NC(=O)CCS(=O)(=O)c2ccc(Br)s2)cc1` the EC50 [8] was 9.14 µM (active).

For `CCCc1ccc(C2C3=C(CC(C)(C)CC3=O)N=C3C2=C(O)c2ccccc23)cc1` (stereo not given), the EC50 [9] was 2.66 µM (active), the AC50 (Cytochrome P450 1A2) was 6.31 µM (inconclusive) and the EC50 [10] was > 150 µM (inactive). The AC50 [11] was 187 µM (active) and the AC50 [12] was 24.9 µM (active).

For `CN(C)CCCN(C(=O)c1ccc(S(=O)(=O)N(C)C2CCCCC2)cc1)c1nc2ccc(F)cc2s1.Cl`, the EC50 (Mu-type opioid receptor) was 4.85 µM (active), the EC50 [13] was > 92.5 µM (inactive) and the EC50 [14] was 1.88 µM (active). For the same compound, the EC50 [15] was > 0.3805 µM and the EC50 [16] was 69.2 µM (inactive).
